Assay results reported in US20230330045A1 (priority 2020, published 2023).
Counter-ions that a name gives are not always drawn. Like-named read-outs stand apart in the source and are kept apart here.

Biological target: eel acetylcholinesterase (AChE) (Electrophorus electricus, UniProt O42275)
Experiment: Eel AChE fluorescence assay (AMPLEX Red kit)
Format: biochemical
Procedure: Enzymatic reactions consisted of 50 μM acetylcholine, 200 μM AIVIPLEX™ Red reagent, 1 U/mL horseradish peroxidase, 0.1 U/mL choline oxidase and 0.096 U/mL acetylcholinesterase, with 30 1% DMSO. […] Control reactions lacking acetylcholinesterase but containing 5 μM H2O2 in presence of compounds were analyzed at the same wavelength to exclude compounds that display assay interference. Dose-response curves were performed in duplicate.

[1] = eel AChE activity, at 20 μM, read-out: Percentage inhibition
[2] = read-out: inhibition of enzyme activity compared to DMSO control (screen)

Sequence of eel acetylcholinesterase (AChE) (O42275 24-633): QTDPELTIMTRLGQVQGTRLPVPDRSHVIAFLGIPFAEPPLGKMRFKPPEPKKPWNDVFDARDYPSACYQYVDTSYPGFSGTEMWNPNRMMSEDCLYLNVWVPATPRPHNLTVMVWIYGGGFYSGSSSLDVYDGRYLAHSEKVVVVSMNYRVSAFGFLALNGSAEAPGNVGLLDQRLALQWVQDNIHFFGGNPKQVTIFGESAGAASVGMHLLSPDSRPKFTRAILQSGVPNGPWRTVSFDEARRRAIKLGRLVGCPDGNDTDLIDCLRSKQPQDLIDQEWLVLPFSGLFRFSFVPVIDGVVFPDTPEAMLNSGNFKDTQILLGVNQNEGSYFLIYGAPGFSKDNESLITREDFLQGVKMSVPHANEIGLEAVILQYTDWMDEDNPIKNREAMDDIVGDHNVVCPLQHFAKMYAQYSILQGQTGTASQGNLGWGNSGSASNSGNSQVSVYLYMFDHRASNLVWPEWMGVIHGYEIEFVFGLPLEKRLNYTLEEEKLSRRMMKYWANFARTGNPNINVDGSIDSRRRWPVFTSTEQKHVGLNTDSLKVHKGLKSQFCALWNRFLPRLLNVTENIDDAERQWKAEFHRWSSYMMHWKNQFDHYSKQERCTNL

| Compound | inhibition at 20 µM [1] [%] | inhibition at 20 µM [2] [%] |
| --- | --- | --- |
| COc1ccc2nc3cc(Cl)ccc3c(Nc3cc(CN4CCCC4)c(O)c(CN4CCCC4)c3)c2n1 [pyronaridine] | 53.6 | > 50 |
| CCN(CC)CCC[C@H](C)Nc1c2ccc(Cl)cc2nc2ccc(OC)cc12 [quinacrine hydrochloride] | 61.8 | > 50 |
